Reference: US11464754B2, “Betaine for the prevention of obesity” (HOSPITAL SANT JOAN DE DEU, priority 2017, dated 2022)

Key:
ICR-CD1 mice [1] = test: Intestinal epithelium and inflammatory markers in 6-week-old offspring of betaine-treated dams; format: in vivo
Experimental: (§1) All animal protocols were approved by the Institutional Animal Care and Use Committee of the University of Barcelona (Spain). Mice were housed on a 12-hour light-dark cycle with free access to food and water. Male and female ICR-CD1 mice (Envigo) were mated to obtain progeny. To minimize growth variability, litters were adjusted to 8 pups per dam at birth removing heaviest and lightest mice. Glycine betaine (1% wt/vol), ampicilin (1 g/L), and neomycin (0.5 g/L) (Sigma-Aldrich) were administered in water during lactation. After weaning, mice were housed 4 per cage and fed the 2014 Teklad diet (Envigo). For diet-induced obesity, a high-fat diet (HFD, 45% kcal from fat) was provided (D12451, Research Diets). For maternal obesity studies, 6-week-old females were fed HFD for 8 weeks before mating; this same diet was maintained through pregnancy and lactation. To assess milk intake, pups were separated from dams for 2 hours and returned to their cages for 1 hour; difference in body weight before and after the feeding was expressed as grams per initial body weight per hour. For milk harvesting, samples were collected manually under anesthesia (pentobarbital, 40 mg/kg) at day 14 after birth; dams and pups were sacrificed after milk collection, and cecal content obtained for microbiome studies. Body composition was determined by using a 7.0T Bruker Biospect MRI system (Bruker Medical Gmbh, Germany). Indirect calorimetry was measured in metabolic cages (PhenoMaster/LabMaster, TSE Systems GmbH, Germany); O2, CO2, food intake, and locomotor activity were monitored for 48 hours, and data analyzed using 2-way ANOVA for repeated measures. Intraperitoneal glucose (1.5 g/kg) and insulin (0.6 U/kg) tolerance test were performed after a 16 or 4 hour fast, respectively. Mice were anesthetized (intraperitoneal pentobarbital, 50 mg/kg) and sacrificed between 9-11 am.
(§2) Mouse milk samples were diluted 1:3 before macronutrient analysis by mid-infrared spectroscopy in a Miris Analyzer (Miris AB). Relative betaine concentrations were determined by liquid chromatography (Acquity UPLC BEH HILIC column, Waters) coupled to mass spectrometry (QqQ/MS 6490, Agilent). Plasma insulin was determined by ELISA (Millipore). Plasma MCP-1, IL-6 and PAI-1 were measured using Milliplex Map (EMD Millipore, Merck). Hepatic and fecal triglycerides were quantified in chloroform-methanol extracts from liver or feces (50 mg) using Triglyceride Assay Kit (Sigma-Aldrich).
Total RNA from tissues was isolated with TRI Reagent (Sigma-Aldrich) and cDNA obtained with High-capacity cDNA kit (Applied Biosystems). qPCR was performed with SybrGreen (Takara Bio), using Hprt as housekeeping gene. Primer sequences are the following:
(§3) Tissues were fixed by immersion in formalin, paraffin-embedded, and sections stained with hematoxylin/eosin. For WAT, adipocyte area was measured in 30 random microscopic fields per animal (10-20 cells/field). For ileum, cross-sectional cuts were stained with Periodic acid-Schiff (PAS) method. Ten villi per mouse from 5-6 sections were analyzed. Goblet cell number per villus was determined and expressed as number of cells per 100 μm. Analyses were performed using ImageJ by a researcher blinded to sample ID.
These changes were accompanied by decreased mRNA levels of inflammatory markers (Ccl2, TIr4, Cd11c) in epididymal white adipose tissue (eWAT, FIG. 4B).

ICR-CD1 mice [2] = test: Maternal betaine supplementation during lactation in mouse model of maternal obesity; format: in vivo
Experimental: as §1
To test whether betaine interacts with maternal obesity, betaine supplementation was performed during lactation in a mouse model of maternal obesity. Dams were fed a high-fat diet (HFD) for 8 weeks before mating, and randomly assigned to control (MO-C) or betaine treatment (MO-B) groups at delivery. Supplementation was performed as described above.
(§4) It was also investigated whether the above changes during early life translated into long-term metabolic improvements. Offspring was maintained on a chow diet after weaning and monitored up to 24 weeks of age. […] Consistent with lower adiposity, adipocyte size and inflammatory markers were decreased in male offspring from betaine-treated dams. […] Furthermore, basal insulin levels decreased by 40% in treatment compared to control group (p<0.05, FIG. 5D).

ICR-CD1 mice [3] = test: Diet-induced obesity (HFD for 16 weeks) in offspring of betaine-treated dams; format: in vivo
Experimental: as §1, §2
It was then tested whether this early-life intervention protected against diet-induced obesity. To this end, 6-week-old offspring of lean control or betaine-treated dams were fed a HFD for 16 weeks (HF-C and HF-B groups, respectively). […] Supplementation ameliorated glucose tolerance (FIG. 6B), and decreased fasting glucose (Time 0, FIG. 6B) and insulin levels (FIG. 6C). Hepatic triglyceride accumulation was reduced by 30% in the HF-B group (p<0.05, FIG. 6D).

ICR-CD1 mice [4] = test: Maternal betaine supplementation during lactation, lean dams: offspring growth, adiposity and metabolism on chow diet; format: in vivo
Experimental: as §1, §2, §3
To study whether milk betaine modulates growth and obesity risk, we performed maternal supplementation experiments in mice exclusively during lactation. Dams were randomly assigned to control (C) or treatment (B, 1% betaine in water) groups the first day after delivery. Milk samples were collected at day 14 after birth from a subset of dams to determine betaine levels.
as §4

[5] = Betaine levels and composition of dam milk, and offspring plasma betaine, after maternal betaine supplementation during lactation; format: in vivo, mice
Experimental: All animal protocols were approved by the Institutional Animal Care and Use Committee of the University of Barcelona (Spain). Mice were housed on a 12-hour light-dark cycle with free access to food and water. Male and female ICR-CD1 mice (Envigo) were mated to obtain progeny. To minimize growth variability, litters were adjusted to 8 pups per dam at birth removing heaviest and lightest mice. Glycine betaine (1% wt/vol), ampicilin (1 g/L), and neomycin (0.5 g/L) (Sigma-Aldrich) were administered in water during lactation. After weaning, mice were housed 4 per cage and fed the 2014 Teklad diet (Envigo). […] To assess milk intake, pups were separated from dams for 2 hours and returned to their cages for 1 hour; difference in body weight before and after the feeding was expressed as grams per initial body weight per hour. […] Body composition was determined by using a 7.0T Bruker Biospect MRI system (Bruker Medical Gmbh, Germany). Indirect calorimetry was measured in metabolic cages (PhenoMaster/LabMaster, TSE Systems GmbH, Germany); O2, CO2, food intake, and locomotor activity were monitored for 48 hours, and data analyzed using 2-way ANOVA for repeated measures. […]
Mouse milk samples were diluted 1:3 before macronutrient analysis by mid-infrared spectroscopy in a Miris Analyzer (Miris AB). […] Plasma insulin was determined by ELISA (Millipore). […]

[6] = adult male offspring, chow diet

increase of milk betaine content ([5]; dam milk at day 14 after birth, 1% betaine in water during lactation, vs control): 5 fold | increase of offspring plasma betaine ([5]; fourteen-day-old offspring of betaine-treated dams): 1.8 fold
Structure (SMILES): C[N+](C)(C)CC(=O)O [betaine, glycine betaine]
mRNA levels of inflammatory markers (Ccl2, Tlr4, Cd11c) in eWAT (ICR-CD1 mice [1]; six-week-old male offspring): decreased | circulating levels of IL-6 (ICR-CD1 mice [1]; six-week-old male offspring, p<0.05): decreased | circulating levels of MCP-1 (ICR-CD1 mice [1]; six-week-old male offspring, p=0.08): numerical decrease | circulating levels of PAI-1 (ICR-CD1 mice [1]; six-week-old male offspring, p=0.25): numerical decrease | expression of Ccl2 in brown adipose, liver, and skeletal muscle (ICR-CD1 mice [1]; six-week-old offspring): decreased | ileal Muc2 mRNA expression (ICR-CD1 mice [1]; six-week-old offspring): increased | ileal villi length (ICR-CD1 mice [1]; six-week-old offspring): no differences | increase of ileal goblet cell number (ICR-CD1 mice [1]; six-week-old offspring): 1.3 fold | fat mass (ICR-CD1 mice [2]; 6 weeks of age, MO-B vs MO-C): trend towards lower | milk intake (ICR-CD1 mice [2]; MO-B vs MO-C): no differences | offspring growth during lactation (ICR-CD1 mice [2]; MO-B vs MO-C, obese dams): moderated | basal insulin levels (ICR-CD1 mice [2]; adult male offspring): decreased | glucose tolerance (ICR-CD1 mice [2]; adult male offspring): improved | body weight and adiposity (ICR-CD1 mice [2]; [6]): lower | reduction of hepatic triglyceride accumulation (ICR-CD1 mice [3]; HF-B group vs HF-C, male mice): 30% | fecal lipid content (ICR-CD1 mice [3]; HFD): no differences | cumulative food intake (ICR-CD1 mice [3]; HFD, did not reach statistical significance): modest numerical decrease | body weight gain (ICR-CD1 mice [3]; male and female offspring on HFD, HF-B vs HF-C): lower | insulin levels (ICR-CD1 mice [3]; male mice on HFD): decreased | glucose tolerance (ICR-CD1 mice [3]; male mice on HFD, 18 weeks of life): ameliorated | fasting glucose (ICR-CD1 mice [3]; male mice on HFD, Time 0): decreased | glucose tolerance (ICR-CD1 mice [4]; adult female offspring): no effect | adipocyte size and inflammatory markers (ICR-CD1 mice [4]; [6]): decreased | decrease of basal insulin levels (ICR-CD1 mice [4]; adult male offspring, treatment vs control group): 40% | glucose tolerance (ICR-CD1 mice [4]; adult male offspring, week 20): notable improvement | blood glucose at each time point in insulin tolerance testing (ICR-CD1 mice [4]; adult males): significantly lower | response to insulin administration (ICR-CD1 mice [4]; adult males, insulin tolerance testing): no difference | hepatic triglyceride accumulation (ICR-CD1 mice [4]; adult offspring, chow diet): no significant effect | body weight gain and eWAT weight (ICR-CD1 mice [4]; female offspring, chow diet): no effect | offspring growth patterns during lactation (ICR-CD1 mice [4]; lean dams, 1% betaine in water): did not modulate | milk intake (ICR-CD1 mice [4]; lean dams, pups at 1 week of age): did not modulate | fat mass (ICR-CD1 mice [4]; male offspring at 6 weeks of age, vs control): decreased | eWAT weight (ICR-CD1 mice [4]; male offspring, chow diet, 24 weeks): decreased | body weight gain throughout adulthood (ICR-CD1 mice [4]; male offspring, chow diet, up to 24 weeks of age): lower | glucose tolerance, food intake, energy expenditure, respiratory exchange ratio, activity levels (ICR-CD1 mice [4]; young mice): did not differ
